Experimental data reported in PMC4527730, “A Pan-GTPase Inhibitor as a Molecular Probe” (PLoS ONE, 2015).

Legend:
Rab7, Cdc42 and Ras = experiment: Association and dissociation time course of BODIPY-FL GTP (real-time flow cytometry); format: binding
Procedure: GTPases were bound to glutathione-coated microsphere beads overnight and unbound GTPases were removed by washing. The association and dissociation of BODIPY^- FL GTP was analyzed with the Accuri C6 flow cytometer in real-time. The initial 30 s set the baseline fluorescence. […] When the fluorescence plateau was reached, GTP at 50 μM was added to induce BODIPY^- FL GTP dissociation. […] All the concentrations given are the final concentrations.

[1] = system: EGFR degradation, HeLa cells overexpressing Rab7 wild type; experiment: EGFR degradation in Rab7 overexpressing HeLa cells; format: cell-based; conditions: HeLa cells overexpressing Rab7, 100 μM, 3 h, 0-180 min
Procedure: The EGFR degradation assay in HeLa cells was carried out in a similar way to that in SCC-12F cells but with modifications. […] Cell lysates were prepared at various time points and immunoblotted for total EGFR while actin served as a loading control. Experiments were carried out in triplicate.

[2] = system: phospho-Erk 1/2 in H358 cells; experiment: Western blotting of Erk1/2 phosphorylation downstream of Ras signaling; format: cell-based; conditions: 10 μM, 1 h; complete medium or FBS stimulated after starvation
Procedure: H358 lung cancer cells were seeded at 10^6 cells/well in 6–well plates. […] Then cells were stimulated with 10% FBS for 5 min and lysed in 150 μl RIPA buffer. Cell lysates were processed for SDS-PAGE, transferred to PVDF membranes and probed with a monoclonal antibody directed against phospho-Erk 1/2 (from Cell Signaling) and a monoclonal antibody directed against Erk 1/2 (from Cell Signaling) followed by an HRP labeled ECL anti-mouse IgG (from GE Healthcare).

SCC-12F cells = experiment: Cytotoxicity (CellTiter-Glo); format: cell-based; conditions: up to 100 µM; 24 h and 3 h
Procedure: (§1) S3 Fig. Cytotoxicity of 1 and analogues. […]
(§2) µM over the experimental time frame. Compounds tested in the U937ΔST cells for 24 h (A) and (B), and for 1 h (C). Compounds tested in SCC-12F cells for 24 h (D) and (E), and for 3 h (F-I). Data are reported as ratios of luminescence to that of the DMSO treated control.
(§3) (1 picture or pasted object on this page, not shown here)
(§4) FITC-LDV dissociation assay
(§5) The dissociation kinetics of FITC-LDV was measured by flow cytometry following the addition of 100-fold excess of non-fluorescent LDV. (The kinetic constants obtained are the same within experimental error whether adding 100-fold or 200-fold excess non-fluorescent LDV). The fluorescence decrease was recorded (see B in S2 Fig.). For the resting state, when a fluorescence plateau was reached after the addition of LDV-FITC, LDV was added to the cell suspension. For the high affinity state, when the fluorescence reached equilibrium after the sequential addition of LDV-FITC and N-formyl peptide, LDV was added. To study the effect of a compound, LDV was added at the time point when the fluorescence approached a […]. The fluorescence decrease curve was fitted to Equation 2 to obtain the dissociation rate constant koff. […] Therefore the binding affinity can also be estimated by comparing the measured koff. […]

U937 FPRΔST cells = experiment: Cytotoxicity (CellTiter-Glo); format: cell-based; conditions: up to 100 µM; 24 h and 1 h
Procedure: as §1, §2, §3, §4, §5

Ras = experiment: GTPase and effector interaction assay (Raf1-RBD beads), HeLa cell lysates; conditions: HeLa cells, 10 μM, 2 h, EGF 10 ng/mL 2 min
Procedure: GST effector chimeras consisting of the minimal GTPase binding domain were p21-activated kinase p21 binding domain (PAK-PBD) for Cdc42, Raf1 Ras-binding domain (Raf1-RBD) for Ras, and Rab-interacting lysosomal protein (RILP) for Rab7 binding measurements.
Superdex peptide beads (13 μm, from GE Healthcare) derivatized with GSH were coated with effector proteins to saturation. […] The effector-coated glutathione beads (20,000 beads/assay) were incubated with 200 μL cell lysate from a single treated well for 1 h at 4°C. […] The bead associated fluorescence representing bound GTPase was quantified on an Accuri C6 flow cytometer.

H-Ras = H-Ras (Homo sapiens, UniProt P01112); experiment: Multiplex bead-based flow cytometry dose-response of fluorescent guanine nucleotide binding
Procedure: (§6) Briefly, individual GST-GTPases were separately attached to glutathione microsphere beads that were labeled with varying intensity of red fluorescent dye, and subsequently combined. The buffer contains 30 mM HEPES (pH 7.2), 150 mM KCl, 20 mM NaCl, 0.1% BSA, 1 mM DTT, 1 mM EDTA and 0.1% NP-40. […] To study whether the compounds are slow binders, BODIPY^- FL GTP was added either immediately or 2 h after compound addition. […] The curves were fitted to the sigmoidal dose-response equation using GraphPad Prism. Percent response was calculated as the ratio of (sample MCF–negative control MCF) / (positive control MCF–negative control MCF).

Cdc42 Q61L = Cdc42 Q61L (Homo sapiens, UniProt P60953, Q61L); experiment: as above; conditions: EC50 Cdc42 Q61L
Procedure: as §6

Rac1 = Rac1 (Homo sapiens, UniProt P63000); experiment: as above
Rac1 Q61L = Rac1 Q61L (Homo sapiens, UniProt P63000, Q61L); experiment: as above; conditions: EC50 Rac1 Q61L
[3] = BODIPY-FL GTP binding, 2 h at 4°C
[4] = concentration dependence on BODIPY-FL GDP

H-Ras, sequence (P01112 whole entry): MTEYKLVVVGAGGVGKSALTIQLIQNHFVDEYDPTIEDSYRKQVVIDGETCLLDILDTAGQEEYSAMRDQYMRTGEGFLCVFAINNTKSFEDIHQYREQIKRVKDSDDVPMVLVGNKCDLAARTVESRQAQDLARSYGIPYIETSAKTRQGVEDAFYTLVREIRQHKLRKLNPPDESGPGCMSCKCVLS
Cdc42 Q61L, sequence (P60953 whole entry Q61L): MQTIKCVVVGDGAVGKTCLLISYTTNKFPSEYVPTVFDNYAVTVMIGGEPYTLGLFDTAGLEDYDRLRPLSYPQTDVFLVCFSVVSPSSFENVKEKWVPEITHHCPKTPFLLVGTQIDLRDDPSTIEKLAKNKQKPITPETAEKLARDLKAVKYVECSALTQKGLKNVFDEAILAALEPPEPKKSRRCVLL

SMILES: CC1(C)Cc2c(sc(NC(=S)NC(=O)c3ccccc3)c2C(=O)O)CO1 [Compound 1]
- covalent bond formation with GTPases / reversibility (Rab7, Cdc42 and Ras; 50 μM overnight, extensive washing): did not form a covalent bond
- dissociation of pre-bound BODIPY-FL GTP (Rab7, Cdc42 and Ras; compound 50 μM added at plateau): able to induce dissociation
- binding of BODIPY-FL GTP in the presence of compound (Rab7, Cdc42 and Ras; compound 50 μM, BODIPY-FL GTP 100 nM): decreased
- EGFR degradation [1]: delayed EGFR degradation
- phosphorylation level of Erk 1/2 [2]: decreased
- toxicity (SCC-12F cells): did not show toxicity
- toxicity (U937 FPRΔST cells): did not show toxicity
- level of active Ras after EGF stimulation (Ras): dramatically blunted
- EC50 (H-Ras; EC50 H-Ras, BODIPY-FL GTP binding, 2 h at 4°C): 160 ± 160 nM
- EC50 (H-Ras; EC50 H-Ras, concentration dependence on BODIPY-FL GDP): 240 nM
- EC50 (H-Ras; EC50 Ras, with 2 h incubation before BODIPY-FL GTP): 100 ± 3.5 nM
- EC50 (H-Ras; EC50 Ras, without incubation before BODIPY-FL GTP): 130 ± 2.6 nM
- EC50 (Cdc42 Q61L; [3]): 47 ± 38 nM
- EC50 (Cdc42 Q61L; [4]): 350 nM
- EC50 (Rac1; EC50 Rac1, BODIPY-FL GTP binding, 2 h at 4°C, 1 mM MgCl2): 62 ± 49 nM
- EC50 (Rac1; EC50 Rac1, concentration dependence on BODIPY-FL GDP): 99 nM
- EC50 (Rac1 Q61L; [3]): 75 ± 59 nM
- EC50 (Rac1 Q61L; [4]): 120 nM
